Experimental data taken from patent US8129434B2, “Benzylphenyl cyclohexane derivatives and methods of use” (Theracos, Inc., priority 2007, dated 2012).

Legend:
human SGLT2 = molecular target: T1, human SGLT2 (Homo sapiens, UniProt P31639); test: Methyl-α-D-[U-14C]glucopyranoside uptake assay, cells stably expressing human SGLT2; assay type: cell-based; settings: HEK293.ETN cells stably expressing human SGLT2; 25% human serum; 1.5 h at 37° C.; sodium-dependent uptake
T1 construct: A full-length cDNA clone expressing human SGLT2 (GenScript Corporation) was subcloned into Hind III and Not I sites of pEAK15 expression vector
T1 sequence (P31639 1-672): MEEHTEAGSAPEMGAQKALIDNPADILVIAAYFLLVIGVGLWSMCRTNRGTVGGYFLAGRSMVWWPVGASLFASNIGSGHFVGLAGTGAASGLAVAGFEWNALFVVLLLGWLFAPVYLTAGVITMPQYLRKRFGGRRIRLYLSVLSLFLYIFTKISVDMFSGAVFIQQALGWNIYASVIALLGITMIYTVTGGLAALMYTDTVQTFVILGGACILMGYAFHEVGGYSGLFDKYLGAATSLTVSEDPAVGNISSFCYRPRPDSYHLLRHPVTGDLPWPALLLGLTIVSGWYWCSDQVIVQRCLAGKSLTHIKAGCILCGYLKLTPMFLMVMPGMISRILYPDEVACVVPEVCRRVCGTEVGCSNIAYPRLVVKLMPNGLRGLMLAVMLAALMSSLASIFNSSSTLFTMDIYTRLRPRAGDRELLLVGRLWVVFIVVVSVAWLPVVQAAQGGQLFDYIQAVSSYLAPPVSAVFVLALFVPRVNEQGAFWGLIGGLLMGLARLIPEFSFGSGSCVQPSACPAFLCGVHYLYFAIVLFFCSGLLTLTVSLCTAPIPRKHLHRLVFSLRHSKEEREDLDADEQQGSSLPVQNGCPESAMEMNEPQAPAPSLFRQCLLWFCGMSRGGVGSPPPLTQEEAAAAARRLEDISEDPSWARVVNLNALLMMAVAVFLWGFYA
Excerpt: A full-length cDNA clone expressing human SGLT2 (GenScript Corporation) was subcloned into Hind III and Not I sites of pEAK15 expression vector. Clones harboring the cDNA inserts were identified by restriction analysis.
Plasmid containing human SGLT2 was linearized with Nsi I and purified by agarose gel electrophoresis. Using Lipofectamine 2000 Transfection Reagent (Invitrogen Corporation), DNA was transfected into HEK293.ETN cells and cultured in Dulbecco's Modified Eagle Medium (DMEM) containing 10% fetal bovine serum (FBS) at 37° C. under 5% CO2 for 24 h. Transfectants were selected in the same growth medium supplemented with puromycin (Invitrogen Corporation) for two weeks. Puromycin-resistant cells were recovered and seeded on a fresh 96-well plate (single cell per well) and cultured in the presence of puromycin until cells became confluent. Puromycin-resistant clones were evaluated for SGLT2 activity in the methyl-α-D-[U-^14C]glucopyranoside uptake assay described below.
(§1) Cells expressing SGLT1 or SGLT2 were seeded on 96-well ScintiPlate scintillating plates (PerkinElmer, Inc.) in DMEM containing 10% FBS (1×10^5 cells per well in 100 μl medium) incubated at 37° C. under 5% CO2 for 48 h prior to the assay. Cells were washed twice with 150 μl of either sodium buffer (137 mM NaCl, 5.4 mM KCl, 2.8 mM CaCl2, 1.2 mM MgCl2, 10 mM tris(hydroxymethyl)aminomethane/N-2-hydroxyethylpiperazine-N′-ethanesulfonic acid [Tris/Hepes], pH 7.2) or sodium-free buffer (137 mM N-methyl-glucamine, 5.4 mM KCl, 2.8 mM CaCl2, 1.2 mM MgCl2, 10 mM Tris/Hepes, pH 7.2). Test compound in 50 μl each of sodium or sodium-free buffer containing 40 μCi/ml methyl-α-D-[U-^14C]glucopyranoside (Amersham Biosciences/GE Healthcare) and 25% human serum was added per well of a 96-well plate and incubated at 37° C. with shaking for either 2 h (SGLT1 assay) or 1.5 h (SGLT2 assay). Cells were washed twice with 150 μl of wash buffer (137 mM N-methylglucamine, 10 mM Tris/Hepes, pH 7.2) and methyl-α-D-[U-^14C]glucopyranoside uptake was quantitated using a TopCount scintillation counter (PerkinElmer, Inc.). Sodium-dependent glucopyranoside uptake was measured by subtracting the values obtained with sodium-free buffer from those obtained using sodium buffer (average of triplicate determinations).

human SGLT1 = molecular target: T2, human SGLT1 (Homo sapiens, UniProt P13866); test: Methyl-α-D-[U-14C]glucopyranoside uptake assay, human SGLT1 expressing cells; assay type: cell-based; settings: COS-7 cells transfected with human SGLT1; 25% human serum; 2 h at 37° C.; sodium-dependent uptake
T2 construct: Full-length human SGLT1 cDNA on pDream2.1 expression vector was obtained from GenScript Corporation; host or cells: COS-7 (American Type Culture Collection)
T2 sequence (P13866 1-664): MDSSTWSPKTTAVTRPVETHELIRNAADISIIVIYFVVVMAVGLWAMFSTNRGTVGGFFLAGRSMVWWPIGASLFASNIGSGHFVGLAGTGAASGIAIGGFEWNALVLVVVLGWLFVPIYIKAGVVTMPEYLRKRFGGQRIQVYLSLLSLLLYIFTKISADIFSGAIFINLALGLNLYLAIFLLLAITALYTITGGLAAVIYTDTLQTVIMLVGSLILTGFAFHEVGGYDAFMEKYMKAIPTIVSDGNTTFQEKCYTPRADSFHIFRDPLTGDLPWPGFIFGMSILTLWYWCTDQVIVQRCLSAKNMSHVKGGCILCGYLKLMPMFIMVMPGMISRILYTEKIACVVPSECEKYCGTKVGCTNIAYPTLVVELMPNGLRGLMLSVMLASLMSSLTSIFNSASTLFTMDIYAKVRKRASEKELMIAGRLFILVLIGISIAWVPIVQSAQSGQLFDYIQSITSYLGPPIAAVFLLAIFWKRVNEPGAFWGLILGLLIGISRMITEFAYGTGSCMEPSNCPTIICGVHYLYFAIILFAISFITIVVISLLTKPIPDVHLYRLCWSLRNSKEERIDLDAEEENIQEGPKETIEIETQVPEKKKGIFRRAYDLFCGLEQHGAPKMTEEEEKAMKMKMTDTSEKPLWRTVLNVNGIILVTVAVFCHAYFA
Method: Full-length human SGLT1 cDNA on pDream2.1 expression vector was obtained from GenScript Corporation and propagated in Escherichia coli strain DH5α using Luria-Bertani (LB) medium containing ampicillin. Plasmid DNA was isolated using the QIAGEN Plasmid Midi Kit (QIAGEN Inc.). […] Transfected cells were stored in DMEM containing 10% dimethyl sulfoxide (DMSO) at −80 ° C.
as §1

Row | Structure (SMILES) | IC50 (human SGLT2) | IC50 (human SGLT1)
1 | OC[C@H]1C=C(c2ccc(Cl)c(Cc3ccc(OCC#CC4CC4)cc3)c2)[C@H](O)[C@@H](O)[C@@H]1O [Compound 13, (1R,2S,3S,6R)-4-(4-chloro-3-(4-(3-cyclopropylprop-2-ynyloxy)benzyl)phenyl)-6-(hydroxymethyl)cyclohex-4-ene-1,2,3-triol] | < 1000 nM | > 10000 nM
2 | CCc1ccc(Cc2cc([C@H]3[C@H](O)[C@@H](O)[C@H](O)[C@@H](COC(C)=O)[C@@H]3O)ccc2Cl)cc1 [Compound 17, ((1S,2R,3R,4S,5R,6R)-3-(4-chloro-3-(4-ethylbenzyl)phenyl)-2,4,5,6-tetrahydroxycyclohexyl)methyl acetate] | < 1000 nM | 1000 to 10000 nM
3 | CCc1ccc(Cc2ccccc2O[C@H]2[C@H](O)[C@@H](O)[C@H](O)[C@@H](CO)[C@@H]2O)cc1 [Compound 30, (1R,2S,3R,4R,5S,6R)-4-(2-(4-ethylbenzyl)phenoxy)-6-(hydroxymethyl)cyclohexane-1,2,3,5-tetraol] | < 1000 nM | > 10000 nM
4 | C=C1[C@H](CO)[C@@H](O)[C@H](O)[C@@H](O)[C@@H]1c1ccc(Cl)c(Cc2ccc(CC)cc2)c1 [Compound 35, (1R,2R,3S,4S,6R)-4-(4-chloro-3-(4-ethylbenzyl)phenyl)-6-(hydroxymethyl)-5-methylenecyclohexane-1,2,3-triol] | < 1000 nM | 1000 to 10000 nM
5 | CCc1ccc(Cc2cc([C@H]3[C@H](O)[C@@H](O)[C@H](O)[C@@H](CO)C34CC4)ccc2Cl)cc1 [Compound 37, (4S,5S,6R,7R,8R)-4-(4-chloro-3-(4-ethylbenzyl)phenyl)-8-(hydroxymethyl)spiro[2.5]octane-5,6,7-triol] | < 1000 nM | 1000 to 10000 nM
6 | CC(=O)c1ccc(Cc2cc([C@H]3[C@H](O)[C@@H](O)[C@H](O)[C@@H](CO)[C@@H]3O)ccc2Cl)cc1 [Compound 39, 1-(4-(2-chloro-5-((1R,2S,3R,4R,5S,6R)-2,3,4,6-tetrahydroxy-5-(hydroxymethyl)cyclohexyl)benzyl)phenyl)ethanone] | < 1000 nM | 1000 to 10000 nM
7 | CC(O)c1ccc(Cc2cc([C@H]3[C@H](O)[C@@H](O)[C@H](O)[C@@H](CO)[C@@H]3O)ccc2Cl)cc1 (stereo partly drawn) [Compound 40, (1R,2R,3S,4R,5R,6S)-4-(4-chloro-3-(4-(1-hydroxyethyl)benzyl)phenyl)-6-(hydroxymethyl)cyclohexane-1,2,3,5-tetraol] | < 1000 nM | 1000 to 10000 nM

Further lines, results first:

Row | IC50 (human SGLT2) | IC50 (human SGLT1) | Structure (SMILES)
8 | < 1000 nM | < 1000 nM | CCc1ccc(Cc2cc([C@H]3[C@H](O)[C@@H](O)[C@H](O)[C@@H](CO)[C@@H]3O)ccc2Cl)cc1 [5 (R = Et), (1R,2R,3S,4R,5R,6S)-4-(4-chloro-3-(4-ethylbenzyl)phenyl)-6-(hydroxymethyl)cyclohexane-1,2,3,5-tetraol]
9 | < 1000 nM | 1000 to 10000 nM | CCOc1ccc(Cc2cc([C@H]3[C@H](O)[C@@H](O)[C@H](O)[C@@H](CO)[C@@H]3O)ccc2Cl)cc1 [Compound 9, (1R,2R,3S,4R,5R,6S)-4-(4-chloro-3-(4-ethoxybenzyl)phenyl)-6-(hydroxymethyl)cyclohexane-1,2,3,5-tetraol]
10 | < 1000 nM | < 1000 nM | OC[C@@H]1[C@@H](O)[C@H](O)[C@@H](O)[C@H](c2ccc(Cl)c(Cc3ccc(C4CC4)cc3)c2)[C@H]1O [Compound 10, (1R,2R,3S,4R,5R,6S)-4-(4-chloro-3-(4-cyclopropylbenzyl)phenyl)-6-(hydroxymethyl)cyclohexane-1,2,3,5-tetraol]
11 | < 1000 nM | 1000 to 10000 nM | CCCc1ccc(Cc2cc([C@H]3[C@H](O)[C@@H](O)[C@H](O)[C@@H](CO)[C@@H]3O)ccc2Cl)cc1 [Compound 11, (1R,2R,3S,4R,5R,6S)-4-(4-chloro-3-(4-propylbenzyl)phenyl)-6-(hydroxymethyl)cyclohexane-1,2,3,5-tetraol]
12 | < 1000 nM | > 10000 nM | OC[C@@H]1[C@@H](O)[C@H](O)[C@@H](O)[C@H](c2ccc(Cl)c(Cc3ccc(C4CCCCC4)cc3)c2)[C@H]1O [Compound 12, (1R,2R,3S,4R,5R,6S)-4-(4-chloro-3-(4-cyclohexylbenzyl)phenyl)-6-(hydroxymethyl)cyclohexane-1,2,3,5-tetraol]
